In article PMC11637875, “Discovery of novel PARP1/NRP1 dual-targeting inhibitors with strong antitumor potency” (Frontiers in Pharmacology, 2024):

Key:
[1] = test system: MDA-MB-231 cells; assay: In vitro antiproliferation assay (MTT); format: cell-based; settings: Homo sapiens, MDA-MB-231
Protocol: Cell viability was measured by MTT assays. […] Afterward, the medium was removed. MTT (5 mg/mL) was dissolved in phosphate-buffered saline (PBS) and filter-sterilized, and then, 20 μL of the prepared MTT solution was added to each well, and the cells were incubated for another 4 h until a purple precipitate was visible. The supernatant was removed by centrifugation, and DMSO (150 μL/well) was added to dissolve the insoluble crystals. The absorbance was determined using an enzyme-linked immunosorbent assay reader at a test wavelength of 570 nm. The assays were performed three times in a parallel manner. The non-linear regression was used to plot a Dose-Response-Inhibition to determine the value of the IC50. […] The data were analyzed using GraphPad Prism 9 software.

[2] = target: CLK3 (Homo sapiens, UniProt P49761); assay: Selectivity profile (123 kinase panel); format: biochemical
[3] = target: AMPKα1/β1/γ1 (Homo sapiens, UniProt P54619+Q13131+Q9Y478); assay: Selectivity profile (123 kinase panel); format: biochemical
[4] = target: FLT3 (Homo sapiens, UniProt P36888); assay: Selectivity profile (123 kinase panel); format: biochemical
[5] = target: NuaK1 (Homo sapiens, UniProt O60285); assay: Selectivity profile (123 kinase panel); format: biochemical
[6] = target: HIPK1 (Homo sapiens, UniProt Q86Z02); assay: Selectivity profile (123 kinase panel); format: biochemical
[7] = target: DYRK4 (Homo sapiens, UniProt Q9NR20); assay: Selectivity profile (123 kinase panel); format: biochemical
[8] = target: CHK2 (Homo sapiens, UniProt O96017); assay: Selectivity profile (123 kinase panel); format: biochemical
[9] = target: LCK (Homo sapiens, UniProt P06239); assay: Selectivity profile (123 kinase panel); format: biochemical
[10] = target: EPHA8 (Homo sapiens, UniProt P29322); assay: Selectivity profile (123 kinase panel); format: biochemical
[11] = target: FGFR2 (Homo sapiens, UniProt P21802); assay: Selectivity profile (123 kinase panel); format: biochemical
[12] = target: GSK3α (Homo sapiens, UniProt P49840); assay: Selectivity profile (123 kinase panel); format: biochemical
[13] = target: KDR (Homo sapiens, UniProt P35968); assay: Selectivity profile (123 kinase panel); format: biochemical
[14] = target: CK1α (Homo sapiens, UniProt P48729); assay: Selectivity profile (123 kinase panel); format: biochemical
[15] = target: AurA (Homo sapiens, UniProt O14965); assay: Selectivity profile (123 kinase panel); format: biochemical
[16] = target: NIM1K (Homo sapiens, UniProt Q8IY84); assay: Selectivity profile (123 kinase panel); format: biochemical
[17] = target: T1, PARP1 (Homo sapiens, UniProt P09874); assay: In vitro PARP1 inhibition assay (chemiluminescence); format: biochemical; settings: PARP1 enzyme 0.6 units/well
T1 construct: purchased Abcam
Protocol: In each well, 50 μL of 1 × PARP1 buffer was added and incubated for 30 min at room temperature. The 1 × PARP1 buffer was removed from the wells, and then 25 μL of 1 × PARP1 cocktail was added to each well along with varying doses of compounds and PARP1 enzyme (0.6 units/well). Incubated and washed twice with PBS and 0.1% Triton X-100. Then added 50 μL Strep-HRP and washed twice. Equal volumes (100 μL) of PeroxyGlow A and B were added to each well and immediately take chemiluminescent readings. Data were analyzed by GraphPad Prism 9 software based on chemiluminescence readings of chemiluminescent substrates of Strep-HRP in each well. The IC50 value was were calculated by nonlinear curve fitting in GraphPad Prism 9.

[18] = target: EPHA6 (Homo sapiens, UniProt Q9UF33); assay: Selectivity profile (123 kinase panel); format: biochemical
[19] = target: PARP7 (Homo sapiens, UniProt Q7Z3E1); assay: Selectivity profile (other isoforms of PARP and NRP family); format: biochemical
[20] = target: Erk7 (Homo sapiens, UniProt Q8TD08); assay: Selectivity profile (123 kinase panel); format: biochemical
[21] = target: EPHB1 (Homo sapiens, UniProt P54762); assay: Selectivity profile (123 kinase panel); format: biochemical
[22] = target: T2, NRP1 (Homo sapiens, UniProt O14786); assay: Microscale thermophoresis (MST) assay; format: binding; settings: labeled protein 50 nM, read-out: NRP1 (K d)
T2 construct: purchased Abcam
T2 sequence (O14786 22-644 isoform O14786-2 limits assumed): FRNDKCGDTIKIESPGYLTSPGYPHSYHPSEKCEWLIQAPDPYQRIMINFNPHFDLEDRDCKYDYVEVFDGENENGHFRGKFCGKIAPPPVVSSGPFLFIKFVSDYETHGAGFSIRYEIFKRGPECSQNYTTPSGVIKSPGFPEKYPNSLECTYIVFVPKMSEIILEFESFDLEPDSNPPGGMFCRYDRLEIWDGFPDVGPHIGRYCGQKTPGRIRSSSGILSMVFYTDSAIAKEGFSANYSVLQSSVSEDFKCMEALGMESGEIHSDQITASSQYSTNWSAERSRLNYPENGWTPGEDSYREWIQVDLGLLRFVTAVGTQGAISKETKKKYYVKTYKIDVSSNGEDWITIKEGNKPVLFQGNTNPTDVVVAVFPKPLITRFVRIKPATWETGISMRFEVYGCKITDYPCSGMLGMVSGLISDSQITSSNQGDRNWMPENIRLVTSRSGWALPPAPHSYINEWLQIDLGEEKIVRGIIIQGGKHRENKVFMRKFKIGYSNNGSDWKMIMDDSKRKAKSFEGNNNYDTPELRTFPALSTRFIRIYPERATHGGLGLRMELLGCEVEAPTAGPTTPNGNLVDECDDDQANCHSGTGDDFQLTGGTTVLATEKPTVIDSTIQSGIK
Protocol: (§1) All samples were diluted in 1 × PBST. […] Affinity Analysis software.

[23] = target: T1, PARP1; assay: Microscale thermophoresis (MST) assay; format: binding; settings: labeled protein 50 nM, read-out: PARP1 (K d)
Protocol: as §1

[24] = target: JNK1 (Homo sapiens, UniProt P45983); assay: Selectivity profile (123 kinase panel); format: biochemical
[25] = target: BRSK2 (Homo sapiens, UniProt Q8IWQ3); assay: Selectivity profile (123 kinase panel); format: biochemical

T1 sequence (P09874 whole entry): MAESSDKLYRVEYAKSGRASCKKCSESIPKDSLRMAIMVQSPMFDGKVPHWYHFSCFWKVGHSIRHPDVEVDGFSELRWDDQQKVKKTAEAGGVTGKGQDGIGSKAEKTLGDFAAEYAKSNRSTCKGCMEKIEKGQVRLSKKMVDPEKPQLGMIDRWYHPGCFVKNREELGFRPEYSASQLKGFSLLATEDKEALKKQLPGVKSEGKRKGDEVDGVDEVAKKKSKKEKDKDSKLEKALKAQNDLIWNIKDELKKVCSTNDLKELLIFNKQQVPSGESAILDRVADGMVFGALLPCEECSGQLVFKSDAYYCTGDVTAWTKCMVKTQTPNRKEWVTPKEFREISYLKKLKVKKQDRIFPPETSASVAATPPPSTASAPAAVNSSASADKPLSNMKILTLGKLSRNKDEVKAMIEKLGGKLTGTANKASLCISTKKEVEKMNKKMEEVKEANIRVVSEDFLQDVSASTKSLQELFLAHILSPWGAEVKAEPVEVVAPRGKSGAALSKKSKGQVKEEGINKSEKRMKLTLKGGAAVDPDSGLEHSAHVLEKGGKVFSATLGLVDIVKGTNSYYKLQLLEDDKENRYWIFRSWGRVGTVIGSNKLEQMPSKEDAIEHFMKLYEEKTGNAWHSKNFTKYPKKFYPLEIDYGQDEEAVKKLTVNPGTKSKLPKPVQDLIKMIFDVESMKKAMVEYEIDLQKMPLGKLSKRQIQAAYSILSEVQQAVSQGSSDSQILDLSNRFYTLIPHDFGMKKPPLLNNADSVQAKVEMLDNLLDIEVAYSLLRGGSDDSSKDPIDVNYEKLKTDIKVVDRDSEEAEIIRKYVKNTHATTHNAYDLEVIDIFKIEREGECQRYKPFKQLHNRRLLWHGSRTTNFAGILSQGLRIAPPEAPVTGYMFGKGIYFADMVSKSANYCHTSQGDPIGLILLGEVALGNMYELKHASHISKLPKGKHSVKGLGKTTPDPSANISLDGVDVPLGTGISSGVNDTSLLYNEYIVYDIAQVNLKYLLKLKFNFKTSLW
Chain of PARP7 (Q7Z3E1 whole entry, canonical isoform): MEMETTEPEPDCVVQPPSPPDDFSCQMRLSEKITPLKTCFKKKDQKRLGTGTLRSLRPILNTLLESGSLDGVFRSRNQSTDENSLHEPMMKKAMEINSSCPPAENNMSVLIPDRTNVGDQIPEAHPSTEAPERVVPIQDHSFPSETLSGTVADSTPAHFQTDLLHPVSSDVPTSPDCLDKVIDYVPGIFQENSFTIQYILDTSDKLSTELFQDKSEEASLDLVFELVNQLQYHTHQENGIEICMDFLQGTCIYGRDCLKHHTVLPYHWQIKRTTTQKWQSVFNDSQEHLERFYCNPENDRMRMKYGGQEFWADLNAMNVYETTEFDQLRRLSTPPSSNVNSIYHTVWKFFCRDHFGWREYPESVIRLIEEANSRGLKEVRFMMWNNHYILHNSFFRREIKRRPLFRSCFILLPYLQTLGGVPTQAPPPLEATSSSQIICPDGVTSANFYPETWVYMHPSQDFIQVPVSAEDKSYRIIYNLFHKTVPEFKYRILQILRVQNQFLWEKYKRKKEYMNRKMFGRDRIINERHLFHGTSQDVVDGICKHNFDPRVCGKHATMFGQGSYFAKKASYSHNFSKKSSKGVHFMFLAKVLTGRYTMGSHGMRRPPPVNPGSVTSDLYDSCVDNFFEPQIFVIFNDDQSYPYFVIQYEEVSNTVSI
Chain of FGFR2 (P21802 22-821, species assumed): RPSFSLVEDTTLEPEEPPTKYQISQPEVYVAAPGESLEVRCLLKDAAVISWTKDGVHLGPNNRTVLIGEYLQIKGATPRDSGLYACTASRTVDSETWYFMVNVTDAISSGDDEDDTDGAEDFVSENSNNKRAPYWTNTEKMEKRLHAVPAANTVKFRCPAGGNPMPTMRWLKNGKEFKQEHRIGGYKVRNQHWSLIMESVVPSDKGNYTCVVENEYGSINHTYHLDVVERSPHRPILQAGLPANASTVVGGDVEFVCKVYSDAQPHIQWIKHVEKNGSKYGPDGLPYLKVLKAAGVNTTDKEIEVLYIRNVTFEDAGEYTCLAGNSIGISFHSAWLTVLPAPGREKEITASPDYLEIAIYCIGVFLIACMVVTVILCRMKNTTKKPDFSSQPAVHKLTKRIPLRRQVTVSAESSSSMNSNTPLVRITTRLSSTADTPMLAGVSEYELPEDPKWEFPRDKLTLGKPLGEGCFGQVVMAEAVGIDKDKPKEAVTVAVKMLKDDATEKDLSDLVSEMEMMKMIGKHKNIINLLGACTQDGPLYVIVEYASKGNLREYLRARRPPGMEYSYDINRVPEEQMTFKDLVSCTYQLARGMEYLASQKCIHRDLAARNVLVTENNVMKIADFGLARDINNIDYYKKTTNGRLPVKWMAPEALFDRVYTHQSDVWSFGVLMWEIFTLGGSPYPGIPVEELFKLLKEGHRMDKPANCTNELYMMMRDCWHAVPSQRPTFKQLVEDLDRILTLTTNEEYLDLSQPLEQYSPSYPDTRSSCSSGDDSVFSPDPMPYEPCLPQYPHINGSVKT
Chain of EPHA8 (P29322 28-1005, species assumed): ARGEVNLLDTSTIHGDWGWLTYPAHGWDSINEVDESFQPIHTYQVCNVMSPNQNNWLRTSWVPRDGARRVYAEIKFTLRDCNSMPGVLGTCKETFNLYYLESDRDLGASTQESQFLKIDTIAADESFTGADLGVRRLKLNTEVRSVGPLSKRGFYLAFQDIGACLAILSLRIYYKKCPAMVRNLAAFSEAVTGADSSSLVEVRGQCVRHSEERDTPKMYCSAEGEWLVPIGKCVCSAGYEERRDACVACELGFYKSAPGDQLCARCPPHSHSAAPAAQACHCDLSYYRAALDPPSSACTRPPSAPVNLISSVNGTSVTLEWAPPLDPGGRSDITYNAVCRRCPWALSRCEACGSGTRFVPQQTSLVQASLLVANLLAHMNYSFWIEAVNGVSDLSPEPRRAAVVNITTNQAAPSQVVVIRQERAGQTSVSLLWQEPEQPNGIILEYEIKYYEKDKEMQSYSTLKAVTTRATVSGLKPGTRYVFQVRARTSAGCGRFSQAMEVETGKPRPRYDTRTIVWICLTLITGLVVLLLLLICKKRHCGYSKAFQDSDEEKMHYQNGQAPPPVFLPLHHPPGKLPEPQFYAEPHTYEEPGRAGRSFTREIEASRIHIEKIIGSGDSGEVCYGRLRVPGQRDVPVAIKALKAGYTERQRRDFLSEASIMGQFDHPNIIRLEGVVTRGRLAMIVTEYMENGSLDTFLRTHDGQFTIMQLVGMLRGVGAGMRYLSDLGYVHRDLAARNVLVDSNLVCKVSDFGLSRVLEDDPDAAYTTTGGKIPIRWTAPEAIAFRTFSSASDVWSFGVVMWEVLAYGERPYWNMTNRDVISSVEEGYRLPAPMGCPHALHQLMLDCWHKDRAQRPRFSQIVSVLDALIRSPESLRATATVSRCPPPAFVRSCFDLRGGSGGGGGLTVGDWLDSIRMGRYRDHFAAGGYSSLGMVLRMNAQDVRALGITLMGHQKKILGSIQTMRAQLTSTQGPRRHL
Chain of FLT3 (P36888 27-993, species assumed): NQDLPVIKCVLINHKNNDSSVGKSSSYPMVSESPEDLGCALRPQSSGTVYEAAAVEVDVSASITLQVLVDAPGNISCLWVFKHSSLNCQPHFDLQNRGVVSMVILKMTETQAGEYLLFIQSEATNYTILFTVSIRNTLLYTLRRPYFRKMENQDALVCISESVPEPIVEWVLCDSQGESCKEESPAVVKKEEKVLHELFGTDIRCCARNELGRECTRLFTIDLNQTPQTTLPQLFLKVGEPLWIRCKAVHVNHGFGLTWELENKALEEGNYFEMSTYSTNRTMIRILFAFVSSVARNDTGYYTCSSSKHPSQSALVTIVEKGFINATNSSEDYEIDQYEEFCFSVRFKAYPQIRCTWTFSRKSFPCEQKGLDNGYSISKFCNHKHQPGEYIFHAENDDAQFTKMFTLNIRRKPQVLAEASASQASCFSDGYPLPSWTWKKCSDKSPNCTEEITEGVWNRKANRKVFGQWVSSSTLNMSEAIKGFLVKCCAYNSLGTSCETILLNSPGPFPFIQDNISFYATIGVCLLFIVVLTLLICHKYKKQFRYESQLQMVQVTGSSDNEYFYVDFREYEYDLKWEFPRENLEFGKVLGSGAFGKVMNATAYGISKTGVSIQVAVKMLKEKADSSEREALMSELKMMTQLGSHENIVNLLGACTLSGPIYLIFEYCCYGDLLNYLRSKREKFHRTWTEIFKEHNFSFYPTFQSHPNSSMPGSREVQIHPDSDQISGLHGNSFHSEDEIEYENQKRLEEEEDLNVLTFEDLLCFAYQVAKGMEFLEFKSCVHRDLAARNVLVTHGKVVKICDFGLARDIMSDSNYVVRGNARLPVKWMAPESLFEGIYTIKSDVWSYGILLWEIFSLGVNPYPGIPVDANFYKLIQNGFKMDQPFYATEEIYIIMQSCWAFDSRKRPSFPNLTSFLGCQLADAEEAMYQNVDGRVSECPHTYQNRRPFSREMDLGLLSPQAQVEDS
Chain of NIM1K (Q8IY84 whole entry): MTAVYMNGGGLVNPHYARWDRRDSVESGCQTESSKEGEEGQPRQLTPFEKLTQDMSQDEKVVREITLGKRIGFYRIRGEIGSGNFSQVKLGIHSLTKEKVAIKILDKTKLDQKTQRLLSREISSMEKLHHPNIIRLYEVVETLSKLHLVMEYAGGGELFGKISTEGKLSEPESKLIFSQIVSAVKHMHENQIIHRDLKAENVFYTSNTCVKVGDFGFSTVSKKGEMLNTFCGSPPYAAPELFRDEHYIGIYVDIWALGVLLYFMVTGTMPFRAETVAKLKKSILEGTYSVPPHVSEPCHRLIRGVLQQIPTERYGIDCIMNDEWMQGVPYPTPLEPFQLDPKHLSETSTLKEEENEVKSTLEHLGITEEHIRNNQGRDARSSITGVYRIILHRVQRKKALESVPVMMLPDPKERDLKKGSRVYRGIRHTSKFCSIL

With `NC(N)=NCCC[C@H](NCN1CCN(C(=O)c2cc(Cc3n[nH]c(=O)c4ccccc34)ccc2F)CC1)C(=O)O` [PPNR-4] the IC50 ([1]; 168 h, concentration needed to reduce cell growth by 50% following 7 days cell treatment, read-out: IC50) was 0.21 µM, the inhibition at 2 µM ([1]; 2 μM, read-out: cell inhibition rate) was greater than 80% and the IC50 [2] was greater than 10 µM. For the same compound, the IC50 [3] was greater than 10 µM, the IC50 [4] was greater than 10 µM and the IC50 [5] was greater than 10 µM. The IC50 [6] was greater than 10 µM, the IC50 [7] was greater than 10 µM and the IC50 [8] was greater than 10 µM. The IC50 [9] was greater than 10 µM, the IC50 [10] was greater than 10 µM and the IC50 [11] was greater than 10 µM. For the same compound, the IC50 [12] was greater than 10 µM, the IC50 [13] was greater than 10 µM and the IC50 [14] was greater than 10 µM. The IC50 [15] was greater than 10 µM, the IC50 [16] was greater than 10 µM and the IC50 [17] was 0.00771 ± 0.00039 µM. It also gave an IC50 [18] greater than 10 µM, an IC50 [19] greater than 10 µM and an IC50 [20] greater than 10 µM. For the same compound, the IC50 [21] was greater than 10 µM, the Kd [22] was 0.0166 µM and the Kd [23] was 0.00715 µM. It also gave an IC50 [24] greater than 10 µM and an IC50 [25] greater than 10 µM.
